Measured values published in US20110173718A1, “HERBICIDE TOLERANT PLANTS” (SYNGENTA CROP PROTECTION, INC., priority 2008, published 2011).
“And” between values parts separate entries of the source, which are not always exact repeats. Identical values can stand only once.

Columns and labels:
Type in all cases: in vivo
[1] = tested on: tobacco plants expressing Wheat HPPD; assay: Glasshouse spray test, wheat HPPD transgenic tobacco; conditions: for % damage observed 16 DAT: Wheat HPPD T1; for blch (% bleaching at the meristem relative to control plants) / ht (% height reduction relative to control plants): 100 g, individual T0 lines
Source text: Transgenic lines of tobacco, soyabean and corn etc. can be engineered to express various heterologous HPPDs derived from, for example Avena (SEQ ID #26), Wheat (SEQ ID #27), Pseudomonas fluorescens (SEQ ID # 25) and Shewanella colwelliana (SEQ ID #28) as, for example, described in WO 02/46387.
Single copy events amongst the T1 plant lines are identified by their 3:1 segregation ratio (wrt kanamycin and or herbicide) and by quantitative RT-PCR. Seed from the thus selected T1 tobacco (var Samsun) lines are sown in 3 inch diameter pots containing 50% peat, 50% John Innes soil no 3. After growth to the 3 leaf stage, plants are sprayed, as described above, in order to test for herbicide tolerance relative to like-treated non-transgenic tobacco plants. […]
Exactly as described in example 5 of WO 02/46387 the wheat HPPD gene sequence (Embl DD064495) is cloned behind an Arabidopsis Rubisco small subunit (SSU) promoter and in front of a nos gene terminator to produce an SSU Wheat HPPD nos expression cassette' which is cloned into a binary vector and transformed into tobacco to produce a population of 30-50 transgenic events.

weeds [2] = assay: Glasshouse weed control, HST inhibitors alone and with A22, pre-emergence; conditions: 14 DAT
How it was run: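 Weeds grown in glasshouse trays (24-27 C day, 18-21 C night, ~15 h photoperiod) and track-sprayed in 0.2% X77 at […], pre-emergence or post-emergence at about 7-12 d. HPPD inhibitor A22 applied at 2 g/ha alone or mixed with HST herbicides. Damage scored 0–100% at 14 DAT; synergy calculated by Colby formula.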

weeds [3] = assay: Glasshouse weed control by HST/HPPD (mesotrione) mixtures, post-emergence; conditions: for % damage, mesotrione alone / % damage, 1 g ai ha^−1 mesotrione / colby / % damage, no-mesotrione: post-emergence; for % damage, mesotrione alone: mesotrione 1 g/ha; for colby: difference to Colby expectation
Method: Weed seeds are planted out in trays containing suitable soil (for example 50% peat, 50% John Innes soil no 3) and grown in the glass house conditions under 24-27° C. day; 18-21° C. night and approximately a 14 h (or longer in UK summer) photoperiod. Humidity is ˜65% and light levels up to 2000 μmol/m^2 at bench level. Trays are sprayed with test chemicals dissolved in water with 0.2-0.25% X-77 surfactant and sprayed from a boom on a suitable track sprayer moving at about 2 mph in a suitable track sprayer (for example a DeVries spray chamber with the nozzle about 2 inches from the plant tops). Spray volume is suitably 500-1000 l/ha. Sprays are carried out both pre-emergence and over small plants at about 7-12 d post-emergence
Plants are assessed 14 DAT and herbicidal damage is scored on a scale from 0 to 100%. The HST inhibitor compound 2.30 (designated compound A in table 16 and 17), haloxydine (compound 1.1) and compound 2.13 (designated compound AE in tables 16 and 17) are sprayed at rates between 0 and 500 g/ha.

O=c1c(-c2c(F)ccc(F)c2Cl)c(O)c2nccnc2n1CC(F)F [Compound 2.3]
% damage observed 16 DAT ([1]; 37 g/ha): 0%
% damage observed 16 DAT ([1]; 111 g/ha): 0%
% damage observed 16 DAT ([1]; 333 g/ha): 3%
% damage observed 16 DAT ([1]; 1000 g/ha): 8%
BRAPL Obs, % control score (weeds [2]; HST inhibitor rate 15.625 g/ha): 0%
BRAPL Obs, % control score (weeds [2]; HST inhibitor rate 62.5 g/ha): 2%
BRAPL Obs, % control score (weeds [2]; HST inhibitor rate 250 g/ha): 40%
DIGSA Obs, % control score (weeds [2]; HST inhibitor rate 15.625 g/ha): 0%
DIGSA Obs, % control score (weeds [2]; HST inhibitor rate 62.5 g/ha): 0%
DIGSA Obs, % control score (weeds [2]; HST inhibitor rate 250 g/ha): 40%
ECHCG Obs, % control score (weeds [2]; HST inhibitor rate 15.625 g/ha): 0%
ECHCG Obs, % control score (weeds [2]; HST inhibitor rate 62.5 g/ha): 10%
ECHCG Obs, % control score (weeds [2]; HST inhibitor rate 250 g/ha): 50%
PANMI Obs, % control score (weeds [2]; HST inhibitor rate 15.625 g/ha): 0%
PANMI Obs, % control score (weeds [2]; HST inhibitor rate 62.5 g/ha): 0%
PANMI Obs, % control score (weeds [2]; HST inhibitor rate 250 g/ha): 50%
SETFA Obs, % control score (weeds [2]; HST inhibitor rate 15.625 g/ha): 0%
SETFA Obs, % control score (weeds [2]; HST inhibitor rate 62.5 g/ha): 5%
SETFA Obs, % control score (weeds [2]; HST inhibitor rate 250 g/ha): 30%
SIDSP Obs, % control score (weeds [2]; HST inhibitor rate 15.625 g/ha): 0%
SIDSP Obs, % control score (weeds [2]; HST inhibitor rate 62.5 g/ha): 0%
SIDSP Obs, % control score (weeds [2]; HST inhibitor rate 250 g/ha): 20%

CS(=O)(=O)c1ccc(C(=O)C2C(=O)CCCC2=O)c([N+](=O)[O-])c1 [Mesotrione, mesotrione, reference compound]
damage (weeds [3]; 1 g/ha, 14 DAT, pre- and post-emergence sprays): < 10%
% damage, mesotrione alone (weeds [3]; ALOMY, 14 DAT): 0%
% damage, mesotrione alone (weeds [3]; ECHCG, 14 DAT): 8%
% damage, mesotrione alone (weeds [3]; SETFA, 14 DAT): 0%
% damage observed 16 DAT ([1]; 37 g/ha): 0%
% damage observed 16 DAT ([1]; 111 g/ha): 2%
% damage observed 16 DAT ([1]; 333 g/ha): 0%
% damage observed 16 DAT ([1]; 1000 g/ha): 13%

CC(C)C(=O)Oc1c(-c2c(F)ccc(Br)c2Cl)c(=O)n(CC(F)F)c2nccnc12 [Compound 2.30]
% damage, 1 g ai ha^−1 mesotrione (weeds [3]; ALOMY, 16 g/ha + 1 g ai/ha mesotrione, 14 DAT): 2%
colby (weeds [3]; ALOMY, 16 g/ha + 1 g ai/ha mesotrione): 0
% damage, no-mesotrione (weeds [3]; ALOMY, 16 g/ha, 14 DAT): 2%
% damage, 1 g ai ha^−1 mesotrione (weeds [3]; ALOMY, 31 g/ha + 1 g ai/ha mesotrione, 14 DAT): 3%
colby (weeds [3]; ALOMY, 31 g/ha + 1 g ai/ha mesotrione): 0
% damage, no-mesotrione (weeds [3]; ALOMY, 31 g/ha, 14 DAT): 3%
% damage, 1 g ai ha^−1 mesotrione (weeds [3]; ALOMY, 63 g/ha + 1 g ai/ha mesotrione, 14 DAT): 10%
colby (weeds [3]; ALOMY, 63 g/ha + 1 g ai/ha mesotrione): 5
% damage, no-mesotrione (weeds [3]; ALOMY, 63 g/ha, 14 DAT): 5%
% damage, 1 g ai ha^−1 mesotrione (weeds [3]; ALOMY, 125 g/ha + 1 g ai/ha mesotrione, 14 DAT): 20%
colby (weeds [3]; ALOMY, 125 g/ha + 1 g ai/ha mesotrione): 7
% damage, no-mesotrione (weeds [3]; ALOMY, 125 g/ha, 14 DAT): 13%
% damage, 1 g ai ha^−1 mesotrione (weeds [3]; ALOMY, 250 g/ha + 1 g ai/ha mesotrione, 14 DAT): 22%
colby (weeds [3]; ALOMY, 250 g/ha + 1 g ai/ha mesotrione): 7
% damage, no-mesotrione (weeds [3]; ALOMY, 250 g/ha, 14 DAT): 15%
% damage, 1 g ai ha^−1 mesotrione (weeds [3]; ALOMY, 500 g/ha + 1 g ai/ha mesotrione, 14 DAT): 35%
colby (weeds [3]; ALOMY, 500 g/ha + 1 g ai/ha mesotrione): 12
% damage, no-mesotrione (weeds [3]; ALOMY, 500 g/ha, 14 DAT): 23%
% damage, 1 g ai ha^−1 mesotrione (weeds [3]; ECHCG, 16 g/ha + 1 g ai/ha mesotrione, 14 DAT): 17%
colby (weeds [3]; ECHCG, 16 g/ha + 1 g ai/ha mesotrione): −2
% damage, no-mesotrione (weeds [3]; ECHCG, 16 g/ha, 14 DAT): 12%
% damage, 1 g ai ha^−1 mesotrione (weeds [3]; ECHCG, 31 g/ha + 1 g ai/ha mesotrione, 14 DAT): 38%
colby (weeds [3]; ECHCG, 31 g/ha + 1 g ai/ha mesotrione): 13
% damage, no-mesotrione (weeds [3]; ECHCG, 31 g/ha, 14 DAT): 18%
% damage, 1 g ai ha^−1 mesotrione (weeds [3]; ECHCG, 63 g/ha + 1 g ai/ha mesotrione, 14 DAT): 42%
colby (weeds [3]; ECHCG, 63 g/ha + 1 g ai/ha mesotrione): −5
% damage, no-mesotrione (weeds [3]; ECHCG, 63 g/ha, 14 DAT): 42%
% damage, 1 g ai ha^−1 mesotrione (weeds [3]; ECHCG, 125 g/ha + 1 g ai/ha mesotrione, 14 DAT): 53%
colby (weeds [3]; ECHCG, 125 g/ha + 1 g ai/ha mesotrione): −7
% damage, no-mesotrione (weeds [3]; ECHCG, 125 g/ha, 14 DAT): 57%
% damage, 1 g ai ha^−1 mesotrione (weeds [3]; ECHCG, 250 g/ha + 1 g ai/ha mesotrione, 14 DAT): 68%
colby (weeds [3]; ECHCG, 250 g/ha + 1 g ai/ha mesotrione): 0
% damage, no-mesotrione (weeds [3]; ECHCG, 250 g/ha, 14 DAT): 65%
% damage, 1 g ai ha^−1 mesotrione (weeds [3]; ECHCG, 500 g/ha + 1 g ai/ha mesotrione, 14 DAT): 75%
colby (weeds [3]; ECHCG, 500 g/ha + 1 g ai/ha mesotrione): 6
% damage, no-mesotrione (weeds [3]; ECHCG, 500 g/ha, 14 DAT): 67%
% damage, 1 g ai ha^−1 mesotrione (weeds [3]; SETFA, 16 g/ha + 1 g ai/ha mesotrione, 14 DAT): 18%
colby (weeds [3]; SETFA, 16 g/ha + 1 g ai/ha mesotrione): −5
% damage, no-mesotrione (weeds [3]; SETFA, 16 g/ha, 14 DAT): 23%
% damage, 1 g ai ha^−1 mesotrione (weeds [3]; SETFA, 31 g/ha + 1 g ai/ha mesotrione, 14 DAT): 42%
colby (weeds [3]; SETFA, 31 g/ha + 1 g ai/ha mesotrione): 10
% damage, no-mesotrione (weeds [3]; SETFA, 31 g/ha, 14 DAT): 32%
% damage, 1 g ai ha^−1 mesotrione (weeds [3]; SETFA, 63 g/ha + 1 g ai/ha mesotrione, 14 DAT): 42%
colby (weeds [3]; SETFA, 63 g/ha + 1 g ai/ha mesotrione): 8
% damage, no-mesotrione (weeds [3]; SETFA, 63 g/ha, 14 DAT): 33%
% damage, 1 g ai ha^−1 mesotrione (weeds [3]; SETFA, 125 g/ha + 1 g ai/ha mesotrione, 14 DAT): 62%
colby (weeds [3]; SETFA, 125 g/ha + 1 g ai/ha mesotrione): 5
% damage, no-mesotrione (weeds [3]; SETFA, 125 g/ha, 14 DAT): 57%
% damage, 1 g ai ha^−1 mesotrione (weeds [3]; SETFA, 250 g/ha + 1 g ai/ha mesotrione, 14 DAT): 75%
colby (weeds [3]; SETFA, 250 g/ha + 1 g ai/ha mesotrione): 10
% damage, no-mesotrione (weeds [3]; SETFA, 250 g/ha, 14 DAT): 65%
% damage, 1 g ai ha^−1 mesotrione (weeds [3]; SETFA, 500 g/ha + 1 g ai/ha mesotrione, 14 DAT): 75%
colby (weeds [3]; SETFA, 500 g/ha + 1 g ai/ha mesotrione): 5
% damage, no-mesotrione (weeds [3]; SETFA, 500 g/ha, 14 DAT): 70%
blch (% bleaching at the meristem relative to control plants) ([1]; 7 DAT): 35% (5×) and 40% (5×) and 50% (2×) and 60% (2×) and 30% (6×) and 70% (2×) and 10% (2×)
ht (% height reduction relative to control plants) ([1]; 7 DAT): 50% (5×) and 60% (3×) and 90% (3×) and 70% (7×) and 40% (2×) and 30% (2×) and 20% (2×)
blch (% bleaching at the meristem relative to control plants) ([1]; 21 DAT): 0% (15×) and 90% (2×) and 70% (5×) and 50% (2×) and 65% and 45%
ht (% height reduction relative to control plants) ([1]; 21 DAT): 45% (2×) and 85% (3×) and 80% (2×) and 30% and 55% (3×) and 50% (5×) and 40% (3×) and 60% (2×) and 75% and 70% (2×) and 95% and 90%
